In patent publication US7378497B2, “Potassium channels and genes encoding these potassium channels” (NeuroSearch A/S, priority 1999, dated 2008):

What was measured:
KCNQ4 = biological target: T1, KCNQ4 (Homo sapiens, UniProt P56696, H455Q); assay: Two-electrode voltage clamp of KCNQ4 currents in Xenopus oocytes; assay type: cell-based; conditions: 200 μM Linopirdine
T1 construct: A complete cDNA was assembled and cloned into the oocyte expression vector PTLN; expressed in transfected cells; host or cells: Xenopus oocytes (cRNA injection)
T1 sequence (P56696 1-695 H455Q): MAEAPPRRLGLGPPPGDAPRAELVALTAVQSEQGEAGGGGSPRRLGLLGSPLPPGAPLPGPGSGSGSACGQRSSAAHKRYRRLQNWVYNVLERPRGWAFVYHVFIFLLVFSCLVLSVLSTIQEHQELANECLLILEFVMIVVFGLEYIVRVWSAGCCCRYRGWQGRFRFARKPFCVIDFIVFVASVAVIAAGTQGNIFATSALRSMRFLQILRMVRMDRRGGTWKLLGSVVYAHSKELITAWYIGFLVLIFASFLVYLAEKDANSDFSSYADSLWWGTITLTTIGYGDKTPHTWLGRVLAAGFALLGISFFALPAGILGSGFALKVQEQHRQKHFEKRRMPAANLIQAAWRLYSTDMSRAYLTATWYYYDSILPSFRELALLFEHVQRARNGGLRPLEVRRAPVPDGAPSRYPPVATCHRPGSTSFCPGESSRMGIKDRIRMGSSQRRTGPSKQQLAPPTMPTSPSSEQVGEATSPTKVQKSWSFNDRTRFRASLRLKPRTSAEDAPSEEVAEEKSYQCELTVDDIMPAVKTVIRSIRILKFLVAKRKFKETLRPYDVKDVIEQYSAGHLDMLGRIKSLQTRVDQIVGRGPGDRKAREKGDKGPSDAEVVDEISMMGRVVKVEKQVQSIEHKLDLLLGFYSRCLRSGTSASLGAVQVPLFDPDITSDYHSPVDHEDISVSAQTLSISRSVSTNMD
Experimental: (§1) KCNQ4 was expressed in Xenopus oocytes and its activity was investigated by two-electrode voltage clamping.
(§2) After linearization of the KCNQ4-containing PTLN vector with Hpal, capped cRNA was transcribed in vitro using the mMessage mMachine cRNA synthesis kit (Ambion). Usually 5-15 ng of cRNA were injected into Xenopus oocytes previously isolated by manual defolliculation and short collagenase treatment. In co-expression experiments cRNAs were injected at a 1:1 ratio. Oocytes were kept at 17° C. in modified Barth's solution (90 mM NaCl, 1 mM KCl, 0.41 mM CaCl2, 0.33 mM Ca(NO3)2, 0.82 mM MgSO4, 10 mM HEPES, 100 U penicillin-100 μg streptomycin/ml, pH 7.6).
(§3) Standard two-electrode voltage-clamp measurements were performed at room temperature 2-4 days after injection using a Turbotec 05 amplifier (npi instruments, Tamm, Germany) and pClamp 5.5 software (Axon Instruments). Currents were usually recorded in ND98 solution (see Table 2). Solutions for Na^+/K^+replacement experiments were prepared from an appropriate mixture of solution KD100 (100 mM KCl) and ND100 (100 mM NaCl) to yield the stated concentrations of Na^+and K^+. Linopirdine (RBI, Natick, Mass.) was prepared as a 100 mM stock solution in DMSO and added to a final concentration of 200 μM to ND98.

KCNQ3/KCNQ4 = biological target: T2, KCNQ3/KCNQ4 (Homo sapiens, UniProt O43525+P56696, H455Q); assay: Two-electrode voltage clamp of KCNQ3+KCNQ4 co-expression currents in Xenopus oocytes; assay type: cell-based; conditions: 200 μM Linopirdine
T2 construct: A complete cDNA was assembled and cloned into the oocyte expression vector PTLN; expressed in transfected cells; host or cells: Xenopus oocytes (cRNAs co-injected 1:1)
T2 sequence (P56696 1-695 H455Q): T1 sequence (P56696 1-695 H455Q)
T2 sequence (O43525 1-872): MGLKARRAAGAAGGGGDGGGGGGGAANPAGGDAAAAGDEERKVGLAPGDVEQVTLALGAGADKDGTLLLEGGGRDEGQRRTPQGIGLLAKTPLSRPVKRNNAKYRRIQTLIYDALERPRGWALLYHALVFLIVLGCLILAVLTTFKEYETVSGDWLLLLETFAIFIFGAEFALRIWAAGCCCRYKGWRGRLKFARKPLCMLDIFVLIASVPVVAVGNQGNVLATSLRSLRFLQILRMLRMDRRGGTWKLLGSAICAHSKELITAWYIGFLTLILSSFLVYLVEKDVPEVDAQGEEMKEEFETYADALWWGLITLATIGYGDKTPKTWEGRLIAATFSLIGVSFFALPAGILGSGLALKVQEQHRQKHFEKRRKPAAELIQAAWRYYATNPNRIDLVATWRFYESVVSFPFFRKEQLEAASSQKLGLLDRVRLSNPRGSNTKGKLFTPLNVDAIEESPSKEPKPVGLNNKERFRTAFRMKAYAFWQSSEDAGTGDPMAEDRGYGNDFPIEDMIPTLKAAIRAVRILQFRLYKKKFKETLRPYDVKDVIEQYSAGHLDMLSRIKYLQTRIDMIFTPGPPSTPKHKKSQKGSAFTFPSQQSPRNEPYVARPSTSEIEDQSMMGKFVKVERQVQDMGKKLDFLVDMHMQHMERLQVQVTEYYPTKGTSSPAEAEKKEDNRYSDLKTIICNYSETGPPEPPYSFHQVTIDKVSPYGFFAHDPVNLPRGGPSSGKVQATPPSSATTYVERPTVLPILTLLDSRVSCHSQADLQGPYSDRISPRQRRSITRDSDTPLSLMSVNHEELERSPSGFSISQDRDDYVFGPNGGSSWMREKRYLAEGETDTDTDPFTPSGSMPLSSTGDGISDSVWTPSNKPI
Experimental: as §1, §2, §3

KCNQ2/KCNQ3 channels = KCNQ2/KCNQ3 channels (Homo sapiens, UniProt O43525+O43526, N780T); conditions: 200 μM Linopirdine; cited from earlier work
Chain of KCNQ2/KCNQ3 channels (O43526 1-844 isoform O43526-3 N752T, one chain of several): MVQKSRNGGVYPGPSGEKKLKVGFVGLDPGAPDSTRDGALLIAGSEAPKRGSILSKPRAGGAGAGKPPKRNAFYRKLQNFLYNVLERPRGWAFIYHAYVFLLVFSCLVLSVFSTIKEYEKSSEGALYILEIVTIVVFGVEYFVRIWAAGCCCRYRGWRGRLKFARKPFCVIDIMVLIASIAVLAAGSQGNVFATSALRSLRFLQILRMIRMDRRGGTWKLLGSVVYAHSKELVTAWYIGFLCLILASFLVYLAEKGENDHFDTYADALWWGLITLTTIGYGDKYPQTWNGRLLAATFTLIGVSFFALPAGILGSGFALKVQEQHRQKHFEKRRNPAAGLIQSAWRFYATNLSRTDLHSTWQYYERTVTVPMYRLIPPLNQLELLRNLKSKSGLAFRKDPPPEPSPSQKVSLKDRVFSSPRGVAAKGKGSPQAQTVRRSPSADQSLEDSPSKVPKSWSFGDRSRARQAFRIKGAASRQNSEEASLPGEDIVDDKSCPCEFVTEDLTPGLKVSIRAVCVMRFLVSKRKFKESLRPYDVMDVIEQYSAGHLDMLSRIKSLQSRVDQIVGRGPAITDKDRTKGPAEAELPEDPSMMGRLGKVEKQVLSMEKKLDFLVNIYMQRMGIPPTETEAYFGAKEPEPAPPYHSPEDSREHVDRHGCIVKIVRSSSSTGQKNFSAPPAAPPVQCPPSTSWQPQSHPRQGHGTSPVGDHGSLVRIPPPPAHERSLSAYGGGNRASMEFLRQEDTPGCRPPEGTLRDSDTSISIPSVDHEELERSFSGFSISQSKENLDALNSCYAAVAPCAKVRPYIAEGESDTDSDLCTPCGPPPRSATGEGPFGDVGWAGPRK

O=C1N(c2ccccc2)c2ccccc2C1(Cc1ccncc1)Cc1ccncc1 [Linopirdine, 1,3-dihydro-1-phenyl-3,3-bis(4-pyridylmethyl)-2H-indol-2-one]
time to steady-state inhibition of KCNQ4 currents after addition (KCNQ4): ~1 min | inhibition at 200 µM (KCNQ4; currents measured at +40 mV, Xenopus oocytes, ND98, read-out: inhibition of KCNQ4 current): ~30% | time to steady-state inhibition of KCNQ3+KCNQ4 currents after addition (KCNQ3/KCNQ4): ~3 min | inhibition of KCNQ3/KCNQ4 co-expression current (KCNQ3/KCNQ4; currents measured at +40 mV, Xenopus oocytes, ND98): ≈ 75% | inhibition of KCNQ2/KCNQ3 channels (KCNQ2/KCNQ3 channels): nearly completely inhibits
